Experimental findings from ChEMBL document CHEMBL3526083, “Prediction of relative in vivo metabolite exposure from in vitro data using two model drugs: dextromethorphan and omeprazole” (Drug Metab Dispos, 2012) are described below.

Assay type in all cases: ADME
Data set [1] has as its target T1, UDP-glucuronosyltransferase 1A3 (Homo sapiens, UniProt P35503).
T1 sequence (P35503 whole entry): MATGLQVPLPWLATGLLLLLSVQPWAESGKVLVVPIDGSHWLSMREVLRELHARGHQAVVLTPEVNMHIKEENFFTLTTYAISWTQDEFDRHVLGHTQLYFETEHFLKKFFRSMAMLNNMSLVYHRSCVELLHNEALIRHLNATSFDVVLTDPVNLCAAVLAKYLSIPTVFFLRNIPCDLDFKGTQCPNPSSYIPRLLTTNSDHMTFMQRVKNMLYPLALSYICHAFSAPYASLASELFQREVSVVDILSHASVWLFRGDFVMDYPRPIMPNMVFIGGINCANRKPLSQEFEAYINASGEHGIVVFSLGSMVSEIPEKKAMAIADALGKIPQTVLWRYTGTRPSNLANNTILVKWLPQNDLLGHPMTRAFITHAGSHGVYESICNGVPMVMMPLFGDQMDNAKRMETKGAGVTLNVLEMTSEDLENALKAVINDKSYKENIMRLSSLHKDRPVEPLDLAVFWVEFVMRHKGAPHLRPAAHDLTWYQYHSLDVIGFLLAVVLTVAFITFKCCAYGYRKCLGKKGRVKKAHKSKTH
Kind of data set: Drug metabolism assessed as recombinat UGT1A3 (unknown origin) -mediated dextrophan-O-glucuronide formation.

Data set [2] concerns the target T2, UDP-glucuronosyltransferase 1A7 (Homo sapiens, UniProt Q9HAW7).
T2 sequence (Q9HAW7 whole entry): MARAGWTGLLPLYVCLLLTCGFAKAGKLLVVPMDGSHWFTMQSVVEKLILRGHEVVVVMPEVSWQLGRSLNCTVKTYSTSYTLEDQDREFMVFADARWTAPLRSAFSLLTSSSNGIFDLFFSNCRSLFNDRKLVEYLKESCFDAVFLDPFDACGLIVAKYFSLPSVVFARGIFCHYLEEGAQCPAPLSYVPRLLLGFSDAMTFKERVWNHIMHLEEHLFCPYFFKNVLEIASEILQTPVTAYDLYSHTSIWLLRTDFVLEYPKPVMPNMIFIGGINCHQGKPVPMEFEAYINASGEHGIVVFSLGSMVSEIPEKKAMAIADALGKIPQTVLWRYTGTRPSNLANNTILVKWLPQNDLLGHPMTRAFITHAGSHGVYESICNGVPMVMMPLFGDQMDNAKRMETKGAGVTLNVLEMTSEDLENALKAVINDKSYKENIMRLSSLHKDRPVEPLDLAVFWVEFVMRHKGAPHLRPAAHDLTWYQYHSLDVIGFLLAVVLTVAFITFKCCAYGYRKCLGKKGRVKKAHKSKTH
Kind of data set: Drug metabolism assessed as recombinat UGT1A7 (unknown origin) -mediated dextrophan-O-glucuronide formation.

Data set [3] addresses T3, UDP-glucuronosyltransferase 1A8 (Homo sapiens, UniProt Q9HAW9).
T3 sequence (Q9HAW9 whole entry): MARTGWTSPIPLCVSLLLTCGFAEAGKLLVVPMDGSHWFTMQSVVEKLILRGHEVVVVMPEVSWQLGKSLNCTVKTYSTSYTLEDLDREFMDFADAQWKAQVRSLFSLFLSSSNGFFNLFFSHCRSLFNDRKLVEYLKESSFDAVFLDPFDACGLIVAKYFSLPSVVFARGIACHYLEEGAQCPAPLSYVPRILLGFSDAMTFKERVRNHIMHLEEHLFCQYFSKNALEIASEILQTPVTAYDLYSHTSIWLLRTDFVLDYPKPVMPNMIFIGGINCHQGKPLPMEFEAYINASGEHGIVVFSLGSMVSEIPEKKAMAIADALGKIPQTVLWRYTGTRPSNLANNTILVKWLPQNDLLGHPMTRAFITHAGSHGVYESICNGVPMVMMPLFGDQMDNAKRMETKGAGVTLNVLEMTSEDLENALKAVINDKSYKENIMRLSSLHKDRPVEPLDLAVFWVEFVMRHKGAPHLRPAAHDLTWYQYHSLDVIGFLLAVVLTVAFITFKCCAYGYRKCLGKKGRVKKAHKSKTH
In words: Drug metabolism assessed as recombinat UGT1A8 (unknown origin) -mediated dextrophan-O-glucuronide formation.

The subject of data set [4] is Liver microsome. Kind of data set: Drug metabolism in human liver microsomes assessed as dextrophan-O-glucuronide formation measured as intrinsic clearance in presence of 2% BSA. (Liver microsomes are vesicles of endoplasmic reticulum, rich in cytochrome P450 enzymes.)
For data set [5], the system named is Liver microsome. Kind of data set: Drug metabolism in human liver microsomes assessed as dextrophan-O-glucuronide formation measured as intrinsic unbound clearance in presence of 2% BSA.
In data set [6] the target is T4, UDP-glucuronosyltransferase 2B4 (Homo sapiens, UniProt P06133).
T4 sequence (P06133 whole entry): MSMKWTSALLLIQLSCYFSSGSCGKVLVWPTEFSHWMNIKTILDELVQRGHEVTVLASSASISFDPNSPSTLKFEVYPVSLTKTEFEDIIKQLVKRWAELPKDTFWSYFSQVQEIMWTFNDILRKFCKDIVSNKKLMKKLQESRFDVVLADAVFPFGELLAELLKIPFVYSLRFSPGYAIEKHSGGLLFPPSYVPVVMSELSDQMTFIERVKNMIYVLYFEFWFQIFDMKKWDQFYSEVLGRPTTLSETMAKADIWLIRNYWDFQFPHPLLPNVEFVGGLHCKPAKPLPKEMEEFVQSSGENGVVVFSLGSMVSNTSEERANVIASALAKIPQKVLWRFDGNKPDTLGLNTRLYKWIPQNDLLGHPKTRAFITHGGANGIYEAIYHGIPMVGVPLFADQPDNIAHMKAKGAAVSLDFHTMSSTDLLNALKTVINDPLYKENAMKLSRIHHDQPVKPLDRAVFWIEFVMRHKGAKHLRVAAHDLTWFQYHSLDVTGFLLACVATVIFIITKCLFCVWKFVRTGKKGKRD
In words: Drug metabolism assessed as recombinat UGT2B4 (unknown origin) -mediated dextrophan-O-glucuronide formation.

Data set [7] has as its target T5, UDP-glucuronosyltransferase 2B7 (Homo sapiens, UniProt P16662).
T5 sequence (P16662 whole entry): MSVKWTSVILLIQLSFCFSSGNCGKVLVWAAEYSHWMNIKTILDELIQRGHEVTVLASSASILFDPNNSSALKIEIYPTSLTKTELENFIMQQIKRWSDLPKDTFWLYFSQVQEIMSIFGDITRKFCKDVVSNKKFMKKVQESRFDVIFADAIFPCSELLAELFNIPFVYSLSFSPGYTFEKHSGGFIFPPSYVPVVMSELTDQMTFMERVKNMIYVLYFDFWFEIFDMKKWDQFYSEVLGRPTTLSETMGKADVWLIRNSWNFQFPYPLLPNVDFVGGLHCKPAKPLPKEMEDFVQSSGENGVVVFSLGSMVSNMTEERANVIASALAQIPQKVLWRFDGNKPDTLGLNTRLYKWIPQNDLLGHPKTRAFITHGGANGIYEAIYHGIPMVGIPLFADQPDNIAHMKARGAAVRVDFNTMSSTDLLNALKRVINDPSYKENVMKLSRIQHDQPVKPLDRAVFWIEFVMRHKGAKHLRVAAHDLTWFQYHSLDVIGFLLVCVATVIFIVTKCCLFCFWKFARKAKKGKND
Kind of data set: Drug metabolism assessed as recombinat UGT2B7 (unknown origin) -mediated dextrophan-O-glucuronide formation.

In the case of `CN1CC[C@@]23CCCC[C@@H]2[C@@H]1Cc1ccc(O)cc13` [DEXTRORPHAN], the Drug metabolism result was “metabolite_not_detected” in data set [1]; “metabolite_not_detected” in data set [2]; “metabolite_not_detected” in data set [3]; “metabolite_detected” in data set [6]; “metabolite_detected” in data set [7]. Moreover, the CLH in data set [4] is 11 µL/min/mg. In addition, the CL free in data set [5] turned out to be 12 µL/min/mg.
